Tests used:
estrogen receptor = target: T1, estrogen receptor (Homo sapiens, UniProt P03372); test: In vitro Estrogen Receptor Binding Assay; settings: comparison / general statement in words
T1 construct: made in house; host or cells: CHO cells overexpressing the receptor; 100,000 g cytosol
T1 sequence (P03372 1-595): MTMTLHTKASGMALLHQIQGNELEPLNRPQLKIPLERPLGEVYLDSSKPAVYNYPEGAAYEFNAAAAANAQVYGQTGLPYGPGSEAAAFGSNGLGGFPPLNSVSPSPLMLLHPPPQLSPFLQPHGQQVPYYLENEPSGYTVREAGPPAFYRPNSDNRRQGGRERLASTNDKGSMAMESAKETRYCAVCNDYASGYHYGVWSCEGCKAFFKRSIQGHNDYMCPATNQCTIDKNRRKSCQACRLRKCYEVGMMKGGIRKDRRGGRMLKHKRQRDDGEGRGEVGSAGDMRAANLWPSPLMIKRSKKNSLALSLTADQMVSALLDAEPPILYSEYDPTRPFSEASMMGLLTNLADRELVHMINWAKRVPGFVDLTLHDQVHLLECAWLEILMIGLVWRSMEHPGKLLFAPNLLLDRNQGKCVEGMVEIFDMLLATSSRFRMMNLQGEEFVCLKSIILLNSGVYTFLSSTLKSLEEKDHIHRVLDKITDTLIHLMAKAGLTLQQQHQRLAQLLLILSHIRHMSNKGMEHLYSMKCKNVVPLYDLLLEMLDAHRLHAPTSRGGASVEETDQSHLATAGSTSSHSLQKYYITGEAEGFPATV
Description: CHO cells overexpressing the estrogen receptor were grown in 150 mm^2 dishes in DMEM+10% dextran coated charcoal, stripped fetal bovine serum. The plates were washed twice with PBS and once with 10 mM Tris-HCl, pH 7.4, 1 mM EDTA. Cells were harvested by scraping the surface and then the cell suspension was placed on ice. Cells were disrupted with a hand-held motorized tissue grinder using two, 10-second bursts. The crude preparation was centrifuged at 12,000 g for 20 minutes followed by a 60 minute spin at 100,000 g to produce a ribosome free cytosol. The cytosol was then frozen and stored at -80° C. Protein concentration of the cytosol was estimated using the BCA assay with reference standard protein.
The competition assay was performed in a 96-well plate (polystyrene*) which binds <2.0% of the total input [^3 H]-17β-estradiol and each data point was gathered in triplicate. 100 uG/100 uL of the receptor preparation was aliquoted per well. A saturating dose of 2.5 nM [^3 H] […] Samples were counted to 2% or 10 minutes, whichever occurs first. […] Also, wells containing radioactivity but no cytosol were processed with charcoal to estimate unremovable DPM of [^3 H] […]
Counts per minute (CPM) of radioactivity were automatically converted to disintegrated per minute (DPM) by the Beckman LS 7500 Scintillation Counter using a set of quenched standards to generate a H# for each sample. […]

human estrogen receptor = target: T2, human estrogen receptor (Homo sapiens, UniProt P03372); test: 2×VIT ERE Infection Assay (luciferase); format: cell-based; settings: CHO, 24 h; for Emax at 1 µM: read-out: Infection Luciferase Activity, 1 uM; for activity at 1 µM: read-out: Infection Luciferase Activity, 1 uM + 17β estradiol
T2 construct: expressed in transfected cells; host or cells: Chinese Hamster Ovary (CHO) cells, stably transfected
Description: Chinese Hamster Ovary cells (CHO) which had been stably transfected with the human estrogen receptor were maintained in DMEM+10% fetal bovine serum (FBS). 48h prior to treatment the growth medium was replaced with DMEM lacking phenol red+10% dextran coated charcoal stripped FBS (treatment medium). Cells were plated at a density of 5000 cells/well in 96-well plates containing 200 μL of medium/well.
Reporter DNA (Promega plasmid pGL2 containing two tandem copies of the vitellogenin ERE in front of the minimal thymidine kinase promoter driving the luciferase gene) was combined with the B-galactosidase expression plasmid pCH 110 (Pharmacia) and carrier DNA (pTZ18U) in the following ratio:
20 uG of DNA1 mL of transfection solution
The DNA (20uG) was dissolved in 500 uL of 250 mM sterile CaCl2 and added dropwise to 500 uL of 2×HeBS (0.28 M NaCl, 50 mM HEPES, 1.5 mM Na2 HPO4, pH 7.05) and incubated at room temperature for 20 minutes. 20 uL of this mixture was added to each well of cells and remained on the cells for 16 h. […] Each treatment condition was performed on 8 wells (n=8) which were incubated for 24 h prior to the luciferase assay.
After 24 h exposure to compounds, the media was removed and each well washed 2× with 125 uL of PBS lacking Mg^++ and Ca^++. After removing the PBS, 25 uL of Promega lysis buffer was added to each well and allowed to stand at room temperature for 15 min, followed by 15 min at -80° C. and 15 min at 37° C. 20 uL of lysate was transferred to an opaque 96 well plate for luciferase activity evaluation and the remaining lysate (5 uL) was used for the B-galactosidase activity evaluation (normalize transfection). The luciferan substrate (Promega) was added in 100 uL aliquots to each well automatically by the luminometer and the light produced (relative light units) was read 10 seconds after addition.
To the remaining 5 uL of lysate 45 uL of PBS was added. Then 50 uL of Promega B-galactosidase 2× assay buffer was added, mixed well and incubated at 37° C. for 1 hour. A plate containing a standard curve (0.1 to 1.5 milliunits in triplicate) was set up for each experimental run. The plates were analyzed on a Molecular Devices spectrophotometric plate reader at 410 nm. The optical densities for the unknown were converted to milliunits of activity by mathematical extrapolation from the standard curve.
The luciferase data was generated as relative light units (RLUs) accumulated during a 10 second measurement and automatically transferred to a JMP (SAS Inc) file where background RLUs were subtracted. The B-galactosidase values were automatically imported into the file and these values were divided into the RLUs to normalize the data. The mean and standard deviations were determined from a n=8 for each treatment.

bone [1] = settings: humans; cited from earlier work
uterus [2] = settings: in vivo; cited from earlier work
uterus [3] = settings: ovariectomized rat; versus Tamoxifen; cited from earlier work
bone [4] = settings: ovariectomized rat; cited from earlier work

Structure (SMILES)	binding to the ER receptor (in words) (estrogen receptor)	Emax at 1 µM (human estrogen receptor)	activity at 1 µM (human estrogen receptor)	also measured
COc1ccc2c(c1)CCc1c-2n(Cc2ccc(OCCN3CCCCCC3)cc2)c2ccc(O)cc12 [Example 14, 11-[4-(2-Azepan-1-yl-ethoxy)-benzyl]-3-methoxy-5,11-dihydro-6H-benzo[a]carbazol-8-ol]	bind better to the ER receptor than the indenoindole #6	1%	8%	
CC/C(=C(\c1ccccc1)c1ccc(OCCN(C)C)cc1)c1ccccc1 [tamoxifen]				effect on the bone (bone [1]): estrogen agonist-like effect on the bone; agonism in the uterus (uterus [2]): partial agonist in the uterus
COc1ccc2c(c1)Cc1c-2n(Cc2ccc(OCCN3CCCCC3)cc2)c2ccc(O)cc12 [Example 4, 2-Methoxy-5-[4-(2-piperidin-1-yl-ethoxy)-benzyl]-5,10-dihydro-indeno[1,2-b]lindol-8ol]		-2%	83%	
O=C(c1ccc(OCCN2CCCCC2)cc1)c1c(-c2ccc(O)cc2)sc2cc(O)ccc12 [Raloxifene]				uterine growth (uterus [3]): stimulate uterine growth in the ovariectornized rat to a lesser extent than Tamoxifen; ability to spare bone / bone mass (bone [4]): maintaining the ability to spare bone
COc1ccc2c(c1)CCc1c-2n(Cc2ccc(OCCN3CCCCC3)cc2)c2ccc(O)cc12 [Example 13, 3-Methoxy-11-[4-(2-piperidin-1-yl-ethoxy)-benzyl]-5,11-dihydro-6H-benzof[a]carbazol-8-ol]	bind better to the ER receptor than the indenoindole #6	-7%	1%	

Source: patent US6107292A, “Indenoindoles and benzocarbazoles as estrogenic agents” (American Home Products Corporation, priority 2000, dated 2000)
